Here are results for three molecules from US7799794B2, “Treatment for cardiovascular disease” (Merck Sharp & Dohme Corp., priority 2000, dated 2010).

One assay has as its system Sprague-Dawley rats. Kind of assay: Enalapril or L-Arginine in hyperuricemic rats on low salt diet: blood pressure (Example 4). The assay is classed as in vivo, rat. Particulars: for systolic blood pressure lower than the hyperuricemic controls: at 7 weeks, enalapril 1 mg/kg/d or L-Arginine 1% in drinking water, p<0.05; for effect on systolic blood pressure of hyperuricemic rats: treatment from the outset, 7 weeks. The procedure: Rats were placed on either low salt diet, low salt diet with 2% oxonic acid, low salt diet with oxonic acid and enalapril (1 mg/kg/d in drinking water), or low salt diet with oxonic acid and L-Arginine (1% in drinking water).
Am J Physiol 268:F1 164-76, 1995].

For assay [1] the following is noted: cited from earlier work.
For assay [2] the following is noted: cited from earlier work. The source holds these as a separate data set.

Read-outs that look alike come from different tables or passages of the source.

For the molecule `N=C(N)NCCC[C@H](N)C(=O)O` [L-Arginine], in the assay with Sprague-Dawley rats, the “systolic blood pressure lower than the hyperuricemic controls” value was 25 mm Hg and the “effect on systolic blood pressure of hyperuricemic rats” value is “largely prevented this increase”.

Turning to `CCOC(=O)[C@H](CCc1ccccc1)N[C@@H](C)C(=O)N1CCC[C@H]1C(=O)O` [enalapril], in the assay on Sprague-Dawley rats, the “systolic blood pressure lower than the hyperuricemic controls” value worked out at 25 mm Hg and the “effect on systolic blood pressure of hyperuricemic rats” value was “lowest systolic blood pressures”.

In the case of `CCCCc1nc(Cl)c(CO)n1Cc1ccc(-c2ccccc2-c2nn[nH]n2)cc1` [Compound No. 9, losartan potassium], the “Concentration of Uric Acid in serum” value in assay [1] (25 mg/man oral, in hunger, 0 hr (when administered)) was 5.2 ± 0.5 mg/dL; in assay [1] (25 mg/man oral, in hunger, 4 hr) it was 4.8 ± 0.6 mg/dL; in assay [1] (25 mg/man oral, in hunger, 24 hr) it was 4.6 ± 0.6 mg/dL; in assay [1] (50 mg/man oral, in hunger, 0 hr (when administered)), 6.1 ± 1.4 mg/dL; in assay [1] (50 mg/man oral, in hunger, 4 hr) it was 5.3 ± 1.3 mg/dL; in assay [1] (50 mg/man oral, in hunger, 24 hr), 5.6 ± 1.4 mg/dL. Moreover, the “Concentration of Uric Acid in serum” value is 4.9 ± 1.0 mg/h in assay [1] (100 mg/man oral, after meal, 4 hr); 5.9 ± 0.9 mg/dL in assay [1] (100 mg/man oral, in hunger, 0 hr (when administered)); 4.6 ± 0.7 mg/dL in assay [1] (100 mg/man oral, in hunger, 4 hr); 5.2 ± 0.8 mg/dL in assay [1] (100 mg/man oral, in hunger, 24 hr); 5.6 ± 0.7 mg/dL in assay [1] (200 mg/man oral, in hunger, 0 hr (when administered)); 4.3 ± 0.9 mg/dL in assay [1] (200 mg/man oral, in hunger, 4 hr). Also, the “Concentration of Uric Acid in serum” value in assay [1] (200 mg/man oral, in hunger, 24 hr) is 5.0 ± 0.9 mg/dL. The “uric acid excretion in urine (Concentration of Uric Acid)” value (shortened to “uric acid excretion in urine”) in assay [2] (25 mg/man oral, in hunger, 4-8 hr) is 32.4 ± 14.7 mg/h; in assay [2] (25 mg/man oral, in hunger, 8-12 hr), 28.7 ± 13.6 mg/h; in assay [2] (25 mg/man oral, in hunger, 12-24 hr) it was 19.7 ± 9.9 mg/h; in assay [2] (25 mg/man oral, in hunger, 24-40 hr), 33.2 ± 21.9 mg/h; in assay [2] (50 mg/man oral, in hunger, 0-4 hr), 52.8 ± 4.3 mg/h; in assay [2] (50 mg/man oral, in hunger, 8-12 hr) it was 39.1 ± 4.4 mg/h. Moreover, the “uric acid excretion in urine” value is 22.2 ± 3.8 mg/h in assay [2] (50 mg/man oral, in hunger, 12-24 hr); 26.6 ± 5.4 mg/h in assay [2] (50 mg/man oral, in hunger, 24-40 hr); 75.9 ± 19.0 mg/h in assay [2] (100 mg/man oral, after meal, 0-4 hr); 59.0 ± 3.8 mg/h in assay [2] (100 mg/man oral, after meal, 4-8 hr); 31.8 ± 4.5 mg/h in assay [2] (100 mg/man oral, after meal, 8-12 hr); 19.7 ± 2.5 mg/h in assay [2] (100 mg/man oral, after meal, 12-24 hr). Further, the “uric acid excretion in urine” value in assay [2] (100 mg/man oral, after meal, 24-40 hr) was 29.5 ± 4.1 mg/h; in assay [2] (100 mg/man oral, in hunger, 0-4 hr) it was 81.2 ± 15.7 mg/h; in assay [2] (100 mg/man oral, in hunger, 4-8 hr), 36.4 ± 7.7 mg/h; in assay [2] (100 mg/man oral, in hunger, 8-12 hr) it was 30.1 ± 6.8 mg/h; in assay [2] (100 mg/man oral, in hunger, 12-24 hr), 19.2 ± 4.2 mg/h; in assay [2] (100 mg/man oral, in hunger, 24-40 hr), 28.0 ± 7.2 mg/h. The “uric acid excretion in urine” value in assay [2] (200 mg/man oral, in hunger, 0-4 hr) was 78.7 ± 15.3 mg/h; in assay [2] (200 mg/man oral, in hunger, 4-8 hr), 25.4 ± 6.6 mg/h; in assay [2] (200 mg/man oral, in hunger, 8-12 hr) it was 19.6 ± 5.2 mg/h; in assay [2] (200 mg/man oral, in hunger, 12-24 hr), 13.4 ± 2.3 mg/h; in assay [2] (200 mg/man oral, in hunger, 24-40 hr) it was 21.0 ± 3.0 mg/h.
